Results reported in patent US4546096A, “Anticholinergic glucuronides and antiperspirant use thereof” (Repligen Corporation, priority 1984, dated 1985).
Blank lines part the entries; values can stand above or below the compound they belong to.

Tests used:
[1] = target: T1, bovine liver β-glucuronidase (Bos taurus, UniProt A3KMY8); test: Hydrolysis of glucuronides by bovine liver β-glucuronidase; assay type: biochemical; settings: bovine liver enzyme, pH 5.0; initial rate; enzyme diluted so that PGA rates are equivalent
T1 sequence (A3KMY8 24-652): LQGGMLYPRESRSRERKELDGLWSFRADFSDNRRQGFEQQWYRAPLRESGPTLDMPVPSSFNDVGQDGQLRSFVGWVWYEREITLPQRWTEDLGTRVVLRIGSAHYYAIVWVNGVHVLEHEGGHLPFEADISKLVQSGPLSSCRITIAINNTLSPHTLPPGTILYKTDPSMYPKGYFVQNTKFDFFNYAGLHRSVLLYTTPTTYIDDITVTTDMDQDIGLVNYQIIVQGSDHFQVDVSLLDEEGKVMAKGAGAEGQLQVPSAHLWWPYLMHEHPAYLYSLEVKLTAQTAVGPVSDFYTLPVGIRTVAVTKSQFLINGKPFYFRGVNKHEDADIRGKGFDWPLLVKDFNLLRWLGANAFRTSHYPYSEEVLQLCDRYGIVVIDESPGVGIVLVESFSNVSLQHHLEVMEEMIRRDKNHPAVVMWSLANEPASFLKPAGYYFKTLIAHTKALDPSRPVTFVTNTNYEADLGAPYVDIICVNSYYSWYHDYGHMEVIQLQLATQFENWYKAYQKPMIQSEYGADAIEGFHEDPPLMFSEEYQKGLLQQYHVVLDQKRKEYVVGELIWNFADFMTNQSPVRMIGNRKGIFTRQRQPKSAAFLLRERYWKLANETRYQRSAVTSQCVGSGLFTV

[2] = target: T2, human sweat β-glucuronidase (Homo sapiens, UniProt P08236); test: Hydrolysis of model glucuronides by human sweat glucuronidase; assay type: biochemical; settings: for Hydrolysis of Glucuronides: dialyzed human sweat, initial rate, enzyme diluted so that PGA rates are equivalent
T2 sequence (P08236 23-651): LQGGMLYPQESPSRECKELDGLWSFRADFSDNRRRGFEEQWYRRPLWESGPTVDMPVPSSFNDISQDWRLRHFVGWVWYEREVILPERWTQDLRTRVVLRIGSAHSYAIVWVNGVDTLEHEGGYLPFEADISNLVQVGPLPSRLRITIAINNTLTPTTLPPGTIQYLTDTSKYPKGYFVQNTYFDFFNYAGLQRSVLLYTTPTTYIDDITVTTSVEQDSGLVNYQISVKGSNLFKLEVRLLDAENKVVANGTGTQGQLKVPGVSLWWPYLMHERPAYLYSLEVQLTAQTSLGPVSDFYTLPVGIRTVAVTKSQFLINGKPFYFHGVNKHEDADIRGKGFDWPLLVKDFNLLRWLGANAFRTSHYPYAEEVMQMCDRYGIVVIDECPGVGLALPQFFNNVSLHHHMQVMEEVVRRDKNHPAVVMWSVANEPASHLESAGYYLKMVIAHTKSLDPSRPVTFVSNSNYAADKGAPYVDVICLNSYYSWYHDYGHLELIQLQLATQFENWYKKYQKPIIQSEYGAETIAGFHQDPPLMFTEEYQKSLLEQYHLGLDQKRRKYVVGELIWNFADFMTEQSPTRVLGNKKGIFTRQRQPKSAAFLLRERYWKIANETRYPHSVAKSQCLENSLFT
Method: Sweat was obtained from human volunteers by collection from the axilla during high temperature (>41° C.) in a sauna. The sweat was clarified by centrifugation at 20,000 g for 30 min. This clarified sweat was then either utilized directly in hydrolysis studies or dialyzed against 100 mM NaCl, 50 mM sodium acetate, pH 5.0 prior to use. […] Most of the data presented herein was generated with dialyzed preparations.
β-glucuronidase activity was assayed in the sweat by hydrolysis of phenolphthalein glucuronide. Briefly, this assay was carried out as follows: to an aliquot of undialyzed sweat was added an equal volume of buffer comprising 100 mM NaCl, 100 mM sodium acetate, pH 5.0 (this step was unnecessary when assaying dialyzed sweat) followed by 10 μl of a 100 mg/ml phenolphthalein glucuronide solution (Sigma Chemical, St. Louis, Mo.). The reaction mixture was then incubated at 37° C. After 30 min an aliquot of the reaction mixture was added to a five-fold excess of a 0.2 M glycine buffer, pH 10.4 and the absorbance wa determined at 540 nm. The activity was determined by comparison to a known amount of E. coli β-glucuronidase (Sigma, Type VII) run under standard conditions.
A variety of glucuronides were synthesized and tested for their ability to be hydrolyzed by human sweat glucuronidase. […] These hydrolysis reactions were all carried out under similar conditions, and the extent of hydrolysis was determined at the various time points by HPLC analysis of the reaction mixture.
Generally, dialyzed preparations of sweat were used for the reasons discussed earlier. […] A typical experiment was done by bringing the enzyme solution (50-100 U/ml) to 0.01 to 0.05% in the glucuronide to be tested. A zero time aliquot was withdrawn and stored frozen; the remaining reaction mixture was incubated at 37° C. Aliquots were taken at various time points for rate determinations. These aliquots were stored at -20° C. until analysis by HPLC.
High pressure liquid chromatography of the aliquots drawn from the hydrolysis reactions allowed the separation of the aglycon from the glucuronide in all cases. The nmoles released at any given time were calculated from the absorption at 254 nm and the known extinction coefficient of the compound. Rates are given as initial rates which are determined by plotting nmoles aglycon vs. time.

[3] = target: E. coli β-glucuronidase (Escherichia coli, UniProt P05804); test: Hydrolysis of glucuronides by E. coli β-glucuronidase; assay type: biochemical; settings: pH 6.8; for Hydrolysis of Glucuronides: E. coli enzyme, initial rate, enzyme diluted so that PGA rates are equivalent
Chain of E. coli β-glucuronidase (P05804 whole entry): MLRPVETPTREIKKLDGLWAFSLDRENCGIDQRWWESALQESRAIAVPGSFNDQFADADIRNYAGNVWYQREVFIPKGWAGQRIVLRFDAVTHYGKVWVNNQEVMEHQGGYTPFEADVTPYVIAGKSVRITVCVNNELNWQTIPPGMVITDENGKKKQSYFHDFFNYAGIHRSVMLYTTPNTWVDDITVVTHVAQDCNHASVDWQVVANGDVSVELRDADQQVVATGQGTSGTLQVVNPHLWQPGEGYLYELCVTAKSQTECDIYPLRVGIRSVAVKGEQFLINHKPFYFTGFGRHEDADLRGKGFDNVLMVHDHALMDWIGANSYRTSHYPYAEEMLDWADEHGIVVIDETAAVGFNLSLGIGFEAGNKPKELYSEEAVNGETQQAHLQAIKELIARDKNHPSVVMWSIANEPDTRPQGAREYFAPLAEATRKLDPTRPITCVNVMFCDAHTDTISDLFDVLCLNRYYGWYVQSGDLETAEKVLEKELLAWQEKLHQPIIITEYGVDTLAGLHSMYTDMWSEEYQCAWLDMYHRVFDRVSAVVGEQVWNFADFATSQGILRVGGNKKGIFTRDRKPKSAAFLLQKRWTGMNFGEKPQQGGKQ

[4] = system: rabbit eye pupil; test: Mydriasis assay (rabbit eye pupil diameter); assay type: in vivo; settings: for Change in Pupil Diameter as a function of time: error ± 0.5 mm; for mydriatic potency compared to the parent drugs: compared to parent drugs tropicamide and scopolamine
Method: The rabbit eye pupil diameter was measured with a clear plastic ruler after exposing the eye to 50 W light at a distance of 6 in. Exposure to light contracts the pupil to approximately 3 mm diameter.
The addition of the compounds to be tested is done in a maximum volume of 150 μl, in 50 mM NaPO4, pH 6.8, 100 mM NaCl. The sample was applied in the upper corner of the eye and was allowed to completely cover the cornea after each addition. Pupil dilation was measured at 3 separate intervals following the procedure outlined above. Buffer controls were run in one eye and the anticholinergic in the other.

[5] = Solubility of aglycon in the enzymatic reaction mixture; assay type: physicochemical; settings: aqueous tris hydrochloride reaction mixture
Method: Due to the low solubility of this compound, excess solid material is added to the reaction mixture so that a saturated solution of aglycon is maintained throughout the reaction. The glucuronide is isolated by HPLC with the reversed phase system described in Example 2. It is characterized by hydrolysis with excess E. coli β-glucuronidase (1000 U/ml, pH 6.8) (Sigma, Type […]) for 1 hr at 37° C. which quantitatively releases the aglycon as assayed by HPLC.
The glucuronide of scopolamine p-hydroxybenzoate is synthesized with uridine 5'-diphosphoglucuronic acid transferase by first removing all or substantially all of the esterase activity from liver microsomes. These esterases are removed since they will hydrolyze the aglycon. This operation can be done by washing the liver microsomes in a suitable buffer, as described herein, or by other equivalent washing means known to persons in this art. Advantageously, an esterase inhibitor can be used to supplement the washing of the microsomes. For example, a competitive inhibitor of the esterases such as lysine ethyl ester, and the like, or a suicide substrate such as phenylmethylsulfonyl fluoride, and the like, can be used. […] The glucuronide is characterized by hydrolysis with excess E. coli β-glucuronidase (100 U/ml, pH 6.8) (Sigma, Type VII) for 1 hr at 37° C. which quantitatively releases the aglycon as assayed by HPLC.

[6] = levels 100-fold greater than required to effect a strong mydriatic response with the aglycon

SMILES: O=C1OC(c2ccc(O)cc2)(c2ccc(O[C@@H]3O[C@H](C(=O)O)[C@@H](O)[C@H](O)[C@H]3O)cc2)c2ccccc21 (stereo partly shown) [Phenolphthalein glucuronide, phenolphthalein glucuronide]
Hydrolysis of Glucuronides [1]: 200 nmoles/hour/100 units
Hydrolysis of Glucuronides ([2]; pH 5.0): 200 nmoles/hour/100 units
Hydrolysis of Glucuronides [3]: 200 nmoles/hour/100 units

SMILES: CN1C2CC(OC(=O)C(COC3OC(C(=O)O)C(O)C(O)C3O)c3ccccc3)CC1C1OC12 [Scopolamine glucuronide, scopolamine O-β-D-glucuronide]
Hydrolysis of Glucuronides [1]: 25 nmoles/hour/100 units
Hydrolysis of Glucuronides ([2]; pH 5.0): < 0.5 nmoles/hour/100 units
Hydrolysis by human sweat enzyme (in words) ([2]; pH 5.0): no scopolamine could be detected
Hydrolysis by human sweat enzyme (in words) ([2]; pH 6.8): no hydrolysis
Hydrolysis of Glucuronides [3]: 60 nmoles/hour/100 units
Hydrolysis by E. coli enzyme (in words) [3]: lower, but significant, activity

SMILES: CN1C2CC(OC(=O)C(COC(=O)c3ccc(OC4OC(C(=O)O)C(O)C(O)C4O)cc3)c3ccccc3)CC1C1OC12 [Scopolamine p-Hydroxybenzoy-O-β-D-Glucuronic Acid]
Hydrolysis of Glucuronides ([2]; pH 5.0): 40 nmoles/hour/100 units
Change in Pupil Diameter as a function of time ([4]; 11.4 ug applied, in 45 min): 0 mm
mydriatic response (in words) [4, 6]: No mydriatic response

SMILES: CN1C2CC(OC(=O)C(COC(=O)c3ccc(O)cc3)c3ccccc3)CC1C1OC12 (stereo not shown) [Scopolamine p-hydroxybenzoate, Scopolamine p-Hydroxybenzoate]
mydriatic response (in words) ([4]; 0.1 μg): sufficient for a response
Change in Pupil Diameter as a function of time ([4]; 0.1 ug applied, in 15 min): 7 mm
mydriatic potency compared to the parent drugs [4]: potent mydriatic agents
solubility [5]: low

SMILES: CN1[C@@H]2C[C@@H](OC(=O)[C@H](CO)c3ccccc3)C[C@H]1[C@@H]1O[C@@H]12 [Scopolamine]
mydriatic response (in words) ([4]; 0.6 μg): nonmydriatic
Change in Pupil Diameter as a function of time ([4]; 0.6 ug applied, in 15 min): 0 mm
Change in Pupil Diameter as a function of time ([4]; 6 ug applied, in 15 min): 6 mm
Change in Pupil Diameter as a function of time ([4]; 60 ug applied, in 10 min): 6 mm

Hydrolysis of Glucuronides ([2]; pH 5.0): 2.6 nmoles/hour/100 units
SMILES: COC(=O)C(CO[C@@H]1O[C@H](C(=O)O)[C@@H](O)[C@H](O)[C@H]1O)c1ccccc1 (stereo partly drawn) [Tropic acid methyl ester glucuronide, Tropic Acid Methyl Ester-O-β-D-Glucuronide]

SMILES: CCN(Cc1ccncc1)C(=O)C(CO[C@@H]1O[C@H](C(=O)O)[C@@H](O)[C@H](O)[C@H]1O)c1ccccc1 (stereo partly drawn) [Tropicamide glucuronide, tropicamide O-β-D-glucuronide]
Hydrolysis of Glucuronides [1]: 24 nmoles/hour/100 units
Hydrolysis of Glucuronides ([2]; pH 5.0): 1.6 nmoles/hour/100 units
Hydrolysis by human sweat enzyme (in words) ([2]; pH 5.0): Trace amounts
Hydrolysis by human sweat enzyme (in words) ([2]; pH 6.8): no hydrolysis
Hydrolysis of Glucuronides [3]: > 150 nmoles/hour/100 units
Hydrolysis by E. coli enzyme (in words) [3]: rapidly hydrolyzes
Change in Pupil Diameter as a function of time ([4]; 600 ug applied, in 30 min): 0 mm

Hydrolysis of Glucuronides ([2]; pH 5.0): 36 nmoles/hour/100 units
Change in Pupil Diameter as a function of time ([4]; 600 ug applied, in 25 min): 0 mm
mydriatic response (in words) [4, 6]: No mydriatic response
SMILES: CCN(Cc1ccncc1)C(=O)C(COC(=O)c1ccc(O[C@@H]2O[C@H](C(=O)O)[C@@H](O)[C@H](O)[C@H]2O)cc1)c1ccccc1 (stereo partly drawn) [Tropicamide p-Hydroxybenzoyl-O-β-D-Glucuronic Acid]

SMILES: CCN(Cc1ccncc1)C(=O)C(COC(=O)c1ccc(O)cc1)c1ccccc1 (stereo not shown) [Tropicamide p-hydroxybenzoate, tropicamide p-hydroxybenzoate]
mydriatic response (in words) ([4]; 5.5 μg): clearly mydriatic
Change in Pupil Diameter as a function of time ([4]; 5.5 ug applied, in 35 min): 4 mm
mydriatic potency compared to the parent drugs [4]: potent mydriatic agents
solubility [5]: low

SMILES: CCN(Cc1ccncc1)C(=O)C(CO)c1ccccc1 (stereo not shown) [Tropicamide]
mydriatic response (in words) ([4]; 20 μg): weak response

Hydrolysis of Glucuronides ([2]; pH 5.0): 37 nmoles/hour/100 units
SMILES: COC(=O)Cc1ccc(O[C@@H]2O[C@H](C(=O)O)[C@@H](O)[C@H](O)[C@H]2O)cc1 [p-Hydroxyphenylacetic Acid Methyl Ester-O-β-D-Glucuronide]
